Laboratory results reported in patent US8071290B2, “Hypermethylation of GATA-4 and GATA-5 transcription factor genes in cancer” (Johns Hopkins University School of Medicine, priority 2003, dated 2011).
Marks after values point to notes of the source that are not given here.

Key:
Assay type in all cases: cell-based, human
[1] = tested on: RKO colon cancer cell line; assay: DAC treatment, gene expression by RT-PCR in RKO; set-up: key to GATA-5 expression (Exp, A = DAC treatment) / GATA-6 expression (Exp, A = DAC treatment) / TFF1 expression (Exp, A = DAC treatment) / TFF2 expression (Exp, A = DAC treatment) / TFF3 expression (Exp, A = DAC treatment) / Inhibin α expression (Exp, A = DAC treatment) / Dab2 expression (Exp, A = DAC treatment) / GATA-4 expression (Exp, A = DAC treatment): −: Undetectable level; +: detectable level of expression, by RT-PCR; ++: increased expression level from +basal level
Description: (§1) The CRC and Az521 cell lines were grown in DMEM, MEM or McCoy's medium supplemented with 10% fetal bovine serum, penicillin and streptomycin. For demethylation studies, cells were treated daily with […] 5-aza-2′deoxycytidine (DAC; Sigma Chemical Co.; St. Louis Mo.) for 48 hr (41). Az521 and HCT116 cells also were treated with the histone deacetylase inhibitor, TSA (Wako), alone, or with a combination of DAC plus TSA (41; 6). Total RNA was isolated using the TRIZOL reagent (Invitrogen Corp.; Carlsbad Calif.).
(§2) For RT-PCR, 2 μg of total RNA was reverse transcribed using the SUPERSCRIPT reverse transcription kit (Invitrogen); all genes were amplified with multiple cycle numbers (28-35 cycles) for obtaining semi-quantitative differences in their expression levels. Primer pairs for GATA-1 to GATA-6 and for the GATA-5 target genes are shown in Table 2 (see, also, Bai et al., Mol. Carcinog. 28:184-188, 2000, which is incorporated herein by reference). Annealing was performed at the indicated temperatures, and PCR was performed for the indicated number of cycles (Table 2, below). PCR conditions were as follows: first denature, 95° C., 5 min; denature, 95° C., 1 min; anneal, temperature shown in Table 2 (° C.), 1 min; extension, 72° C., 1 min; final extension, 72° C., 10 min.
(§3) GATA-4, GATA-5and GATA-6 expression was examined in gastrointestinal cancer cell lines. GATA-4, GATA-5 and GATA-6 expression levels were examined by RT-PCR in seven cancer cell lines (colon cancer cell lines RKO, DLD1, HCT116, HT29, LoVo, and SW480; and gastric cancer cell line AZ521) with or without (mock) treatment with 5′-aza-2′-deoxycytidine (DAC) and in normal colonic mucosa (NC) and peripheral blood lymphocytes (PBL). GAPDH expression was used for an internal loading control for the RT-PCR. Gastric cancer cells, AZ521, were treated with low dose DAC alone, TSA alone, or a combination of these two drugs (A/T), or were mock treated, and examined by RT-PCR. GATA-4 and GATA-5 expression were examined in wild type (WT) HCT116 colon cancer cells, and two clones each of these cells in which both alleles of DNA methyltransferase 1 (DNMTI-KO), DNMT 3b (DNMT3b-KO), or both DNMTs were knocked out (21). PCR products recognizing unmethylated and methylated CpG sites were analyzed in 2.5% agarose gels stained by ethidium bromide.

[2] = tested on: DLD1 colon cancer cell line; assay: DAC treatment, gene expression by RT-PCR in DLD1; set-up: key: −: Undetectable level; +: detectable level of expression, by RT-PCR; ++: increased expression level from +basal level; conditions: 5 pM DAC daily for 48 hr
Description: as §1, §2, §3

[3] = tested on: HCT116 colon cancer cell line; assay: DAC treatment, gene expression by RT-PCR in HCT116; set-up: key to GATA-5 expression (Exp, A = DAC treatment) / GATA-6 expression (Exp, A = DAC treatment) / TFF1 expression (Exp, A = DAC treatment) / TFF2 expression (Exp, A = DAC treatment) / TFF3 expression (Exp, A = DAC treatment) / Inhibin α expression (Exp, A = DAC treatment) / Dab2 expression (Exp, A = DAC treatment) / GATA-4 expression (Exp, A = DAC treatment): −: Undetectable level; +: detectable level of expression, by RT-PCR; ++: increased expression level from +basal level
Description: as §1, §2, §3

[4] = tested on: HT29 colon cancer cell line; assay: DAC treatment, gene expression by RT-PCR in HT29; set-up: key: −: Undetectable level; +: detectable level of expression, by RT-PCR; ++: increased expression level from +basal level; conditions: 5 pM DAC daily for 48 hr
Description: as §1, §2, §3

[5] = tested on: LoVo colon cancer cell line; assay: DAC treatment, gene expression by RT-PCR in LoVo; set-up: key: −: Undetectable level; +: detectable level of expression, by RT-PCR; ++: increased expression level from +basal level; conditions: 5 pM DAC daily for 48 hr
Description: as §1, §2, §3

[6] = tested on: SW480 colon cancer cell line; assay: DAC treatment, gene expression by RT-PCR in SW480; set-up: key: −: Undetectable level; +: detectable level of expression, by RT-PCR; ++: increased expression level from +basal level; conditions: 5 pM DAC daily for 48 hr
Description: as §1, §2, §3

[7] = tested on: AZ521 gastric cancer cell line; assay: DAC treatment, gene expression by RT-PCR in AZ521; set-up: key to GATA-4 expression (Exp, A = DAC treatment) / GATA-5 expression (Exp, A = DAC treatment) / GATA-6 expression (Exp, A = DAC treatment) / TFF1 expression (Exp, A = DAC treatment) / TFF2 expression (Exp, A = DAC treatment) / TFF3 expression (Exp, A = DAC treatment) / Inhibin α expression (Exp, A = DAC treatment) / Dab2 expression (Exp, A = DAC treatment): −: Undetectable level; +: detectable level of expression, by RT-PCR; ++: increased expression level from +basal level
Description: as §1, §2, §3

[8] = tested on: colon cancer cell lines RKO, DLD1, HCT116, HT29, LoVo, and SW480; and gastric cancer cell line AZ521; assay: DAC treatment of the seven cancer cell lines, RT-PCR
Description: as §1, §2
as §3, with “GATA-4 and GATA-5 expression were examined in wild type (WT) HCT116 colon cancer cells, and two clones each of these cells in which both alleles of DNA methyltransferase 1 (DNMTI-KO), DNMT 3b (DNMT3b-KO), or both DNMTs were knocked out (21).” left out

[9] = tested on: Gastric cancer cells, AZ521; assay: TSA alone or low dose DAC plus TSA, RT-PCR of GATA-4 and GATA-5
Description: as §1
For RT-PCR, 2 μg of total RNA was reverse transcribed using the SUPERSCRIPT reverse transcription kit (Invitrogen); all genes were amplified with multiple cycle numbers (28-35 cycles) for obtaining semi-quantitative differences in their expression levels. Primer pairs for GATA-1 to GATA-6 and for the GATA-5 target genes are shown in Table 2 (see, also, Bai et al., Mol. Carcinog. 28:184-188, 2000, which is incorporated herein by reference). Annealing was performed at the indicated temperatures, and PCR was performed for the indicated number of cycles (Table 2, below). […]
GATA-4, GATA-5and GATA-6 expression was examined in gastrointestinal cancer cell lines. […] PCR products recognizing unmethylated and methylated CpG sites were analyzed in 2.5% agarose gels stained by ethidium bromide.

[10] = 5 pM DAC daily for 48 hr, RT-PCR
[11] = HCT116, 5 pM DAC daily for 48 hr, RT-PCR
[12] = AZ521, 5 pM DAC daily for 48 hr, RT-PCR

Compound: Nc1ncn([C@H]2C[C@H](O)[C@@H](CO)O2)c(=O)n1 [DAC, 5-aza-2′-deoxycytidine]
- TFF2 re-expression after DAC treatment [1]: did not re-express
- Dab2 expression (Exp, A = DAC treatment) [1, 10]: +
- GATA-4 expression (Exp, A = DAC treatment) [1, 10]: +
- GATA-5 expression (Exp, A = DAC treatment) [1, 10]: +
- GATA-6 expression (Exp, A = DAC treatment) [1, 10]: +
- Inhibin α expression (Exp, A = DAC treatment) [1, 10]: +
- TFF1 expression (Exp, A = DAC treatment) [1, 10]: +
- TFF2 expression (Exp, A = DAC treatment) [1, 10]: −
- TFF3 expression (Exp, A = DAC treatment) [1, 10]: +
- Dab2 reactivation following DAC treatment ([1]; gene basally silent): reactivated
- Dab2 expression (Exp, A = DAC treatment) [2]: +
- GATA-4 expression (Exp, A = DAC treatment) [2]: +
- GATA-5 expression (Exp, A = DAC treatment) [2]: +
- GATA-6 expression (Exp, A = DAC treatment) [2]: +
- Inhibin α expression (Exp, A = DAC treatment) [2]: +
- TFF1 expression (Exp, A = DAC treatment) [2]: ++
- TFF2 expression (Exp, A = DAC treatment) [2]: +
- TFF3 expression (Exp, A = DAC treatment) [2]: +
- TFF2 activation by DAC ([3]; HCT116, TFF2 promoter present): readily activated
- Dab2 expression (Exp, A = DAC treatment) [3, 11]: +
- GATA-4 expression (Exp, A = DAC treatment) [3, 11]: +
- GATA-5 expression (Exp, A = DAC treatment) [3, 11]: +
- GATA-6 expression (Exp, A = DAC treatment) [3, 11]: +
- Inhibin α expression (Exp, A = DAC treatment) [3, 11]: +
- TFF1 expression (Exp, A = DAC treatment) [3, 11]: +
- TFF2 expression (Exp, A = DAC treatment) [3, 11]: +
- TFF3 expression (Exp, A = DAC treatment) [3, 11]: +
- Dab2 expression (Exp, A = DAC treatment) [4]: +
- GATA-4 expression (Exp, A = DAC treatment) [4]: +
- GATA-5 expression (Exp, A = DAC treatment) [4]: +
- GATA-6 expression (Exp, A = DAC treatment) [4]: +
- TFF1 expression (Exp, A = DAC treatment) [4]: ++
- TFF2 expression (Exp, A = DAC treatment) [4]: +
- TFF3 expression (Exp, A = DAC treatment) [4]: +
- Dab2 expression (Exp, A = DAC treatment) [5]: +
- GATA-4 expression (Exp, A = DAC treatment) [5]: ++^4)
- GATA-5 expression (Exp, A = DAC treatment) [5]: ++
- GATA-6 expression (Exp, A = DAC treatment) [5]: +
- Inhibin α expression (Exp, A = DAC treatment) [5]: ++
- TFF1 expression (Exp, A = DAC treatment) [5]: ++
- TFF2 expression (Exp, A = DAC treatment) [5]: +
- TFF3 expression (Exp, A = DAC treatment) [5]: ++
- Dab2 expression (Exp, A = DAC treatment) [6]: +
- GATA-4 expression (Exp, A = DAC treatment) [6]: +
- GATA-5 expression (Exp, A = DAC treatment) [6]: +
- GATA-6 expression (Exp, A = DAC treatment) [6]: +
- Inhibin α expression (Exp, A = DAC treatment) [6]: ++
- TFF1 expression (Exp, A = DAC treatment) [6]: +
- TFF2 expression (Exp, A = DAC treatment) [6]: +
- TFF3 expression (Exp, A = DAC treatment) [6]: +
- Dab2 expression (Exp, A = DAC treatment) [7, 12]: +
- GATA-4 expression (Exp, A = DAC treatment) [7, 12]: +
- GATA-5 expression (Exp, A = DAC treatment) [7, 12]: +
- GATA-6 expression (Exp, A = DAC treatment) [7, 12]: +
- Inhibin α expression (Exp, A = DAC treatment) [7, 12]: ++
- TFF1 expression (Exp, A = DAC treatment) [7, 12]: +
- TFF2 expression (Exp, A = DAC treatment) [7, 12]: −
- TFF3 expression (Exp, A = DAC treatment) [7, 12]: +
- TFF2 re-expression after DAC treatment ([7]; Az521): did not re-express
- re-expression of each basally silent GATA gene, except GATA-1 ([8]; DAC treatment, RT-PCR): re-expressed
- low basal expression of TFF1, TFF3, inhibin α after DAC ([8]; DAC, in many instances): further increased
- activation of each downstream gene (TFF1, TFF2, TFF3, inhibin α, Dab2) ([8]; DAC, virtually every cell line in which the gene lacked basal expression): activated

Compound: CC(/C=C/C(=O)NO)=C\[C@@H](C)C(=O)c1ccc(N(C)C)cc1 [TSA]
- reactivation of the silenced GATA-4 and GATA-5 genes ([9]; TSA alone): failed to reactivate
- reactivating expression of the silenced GATA-4 and GATA-5 genes ([9]; TSA applied with a low dose of DAC): synergistic
